In brackets after ≈: the same amount, converted by molar mass.
Columns and labels:
Solubility at pH 6.8 = type: physicochemical; details: pH 6.8, aqueous buffer
Description: The solubility of Forms I and II of idelalisib is very low. At pH 6.8 a solubility of about 70 mg/L was measured.

[1] = pressure conditions typical for tablet preparation; cited from earlier work
[2] = Solubility in water at 25°C; type: physicochemical
[3] = Compression stability (KBr pellet die, XRPD analysis); type: physicochemical; details: compressed for 4.5 days at 740 MPa
Description: XRPD diffractograms were obtained with an X'Pert PRO diffractometer (PANalytical, Almelo, The Netherlands) equipped with a theta/theta coupled goniometer in transmission geometry, programmable XYZ stage with well plate holder, Cu K-alpha radiation source (wavelength 0.15418 nm) with a focusing mirror, a 0.5° divergence slit, a 0.02° soller slit collimator and a 0.5° anti-scattering slit on the incident beam side, a 2 mm anti-scattering slit, a 0.02° soller slit collimator, a Ni-filter and a solid state PIXcel detector on the diffracted beam side. The diffractogram was recorded at room temperature (25°C) at a tube voltage of 40 kV, tube current of 40 mA, applying a step size of 0.013° 2-Theta with 40 sec per step in the angular range of 2° to 40° 2-Theta. A typical precision of the 2-Theta values is in the range of ± 0.2° 2-Theta. Thus, a diffraction peak that appears for example at 9.4° 2-Theta can appear between 9.2 and 9.6° 2-theta on most X-ray diffractometers under standard conditions. 50 mg of pure amorphous idelalisib obtained as disclosed in Example 4b) were added to a KBr pellet die and compressed for 4.5 days at 740 MPa.

[4] = Thermal and humidity stability (XRPD analysis); type: physicochemical
Description: XRPD diffractograms were obtained with an X'Pert PRO diffractometer (PANalytical, Almelo, The Netherlands) equipped with a theta/theta coupled goniometer in transmission geometry, programmable XYZ stage with well plate holder, Cu K-alpha radiation source (wavelength 0.15418 nm) with a focusing mirror, a 0.5° divergence slit, a 0.02° soller slit collimator and a 0.5° anti-scattering slit on the incident beam side, a 2 mm anti-scattering slit, a 0.02° soller slit collimator, a Ni-filter and a solid state PIXcel detector on the diffracted beam side. The diffractogram was recorded at room temperature (25°C) at a tube voltage of 40 kV, tube current of 40 mA, applying a step size of 0.013° 2-Theta with 40 sec per step in the angular range of 2° to 40° 2-Theta. A typical precision of the 2-Theta values is in the range of ± 0.2° 2-Theta. Thus, a diffraction peak that appears for example at 9.4° 2-Theta can appear between 9.2 and 9.6° 2-theta on most X-ray diffractometers under standard conditions. 50 mg of pure amorphous idelalisib obtained as disclosed in Example 4b) were exposed to 98% relative humidity at 25°C for 5 days. […] 50 mg of pure amorphous idelalisib obtained as disclosed in Example 4b) were exposed to 75% relative humidity at 40°C for 5 days. […] 50 mg of pure amorphous idelalisib obtained as disclosed in Example 4b) were thermally stressed at 120°C and 50% relative humidity for 5 days in a sealed vial.

Row | solubility (Solubility at pH 6.8) [µg/mL] | solubility [2] [µg/mL] | change in the amorphous phase by XRPD after compression [3] | change of the amorphous form by XRPD after storage ([4]; 75% relative humidity at 40°C for 5 days) | change of the amorphous form by XRPD after storage ([4]; 98% relative humidity at 25°C for 5 days) | change of the amorphous form by XRPD after storage ([4]; 120°C and 50% relative humidity for 5 days in a sealed vial) | Structure (SMILES) | phase conversion under pressure [1]
1 | ~70 (≈ 168 µM) | – | – | – | – | – | CC[C@H](Nc1ncnc2[nH]cnc12)c1nc2cccc(F)c2c(=O)n1-c1ccccc1 [Form I, (S)-2-(1-(9H-purin-6-ylamino)propyl)-5-fluoro-3-phenylquinazolin-4(3H)-one] | easily converts at least partially to Form II
2 | – | ~415 (≈ 999 µM) | no change in the amorphous phase | no change of the amorphous form | no change of the amorphous form | no change of the amorphous form | CC[C@H](Nc1ncnc2[nH]cnc12)c1nc2cccc(F)c2c(=O)n1-c1ccccc1 [pure amorphous idelalisib, (S)-2-(1-(9H-purin-6-ylamino)propyl)-5-fluoro-3-phenylquinazolin-4(3H)-one] | –
